Experimental data reported in ChEMBL document CHEMBL1201862, “PubChem BioAssay data set” (2004).
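Protocol summary: plate cells (96-well), add compound at 5 concentrations, incubate 48 h, interpolate endpoints linearly. Here, GI50 denotes the concentration required for 50% inhibition of growth.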 Calls of active or inactive are those of the source. No stated cut-off is given here; in the data, active = GI50 up to about 1.1 µM and inactive = higher.

Assays:
Assay in all cases: DTP human tumour cell line panel, 48 h
786-0 = tested on: 786-0
A498 = tested on: A498
A549 = tested on: A549
ACHN = tested on: ACHN
CCRF-CEM = tested on: CCRF-CEM
COLO 205 = tested on: COLO 205
DLD-1 = tested on: DLD-1
DMS-114 = tested on: DMS-114
DMS-273 = tested on: DMS-273
EKVX = tested on: EKVX
HCC 2998 = tested on: HCC 2998
HCT-116 = tested on: HCT-116
HCT-15 = tested on: HCT-15
HL-60 = tested on: HL-60
HOP-18 = tested on: HOP-18
HOP-62 = tested on: HOP-62
HOP-92 = tested on: HOP-92
HT-29 = tested on: HT-29
IGROV-1 = tested on: IGROV-1
K562 = tested on: K562
KM-20L2 = tested on: KM-20L2
KM12 = tested on: KM12
LOX IMVI = tested on: LOX IMVI
LXFL 529 = tested on: LXFL 529
M14 = tested on: M14
M19-MEL = tested on: M19-MEL
MOLT-4 = tested on: MOLT-4
Malme-3M = tested on: Malme-3M
NCI-H226 = tested on: NCI-H226
NCI-H23 = tested on: NCI-H23
NCI-H460 = tested on: NCI-H460
NCI-H522 = tested on: NCI-H522
OVCAR-3 = tested on: OVCAR-3
OVCAR-4 = tested on: OVCAR-4
OVCAR-5 = tested on: OVCAR-5
OVCAR-8 = tested on: OVCAR-8
RPMI-8226 = tested on: RPMI-8226
RXF 393 = tested on: RXF 393
SF-268 = tested on: SF-268
SF-295 = tested on: SF-295
SF-539 = tested on: SF-539
SK-MEL-28 = tested on: SK-MEL-28
SK-MEL-2 = tested on: SK-MEL-2
SK-MEL-5 = tested on: SK-MEL-5
SK-OV-3 = tested on: SK-OV-3
SN12C = tested on: SN12C
SNB-19 = tested on: SNB-19
SNB-75 = tested on: SNB-75
SNB-78 = tested on: SNB-78
SR = tested on: SR
SW-620 = tested on: SW-620
TK-10 = tested on: TK-10
U-251 = tested on: U-251
UACC-257 = tested on: UACC-257
UACC-62 = tested on: UACC-62
UO-31 = tested on: UO-31
XF498 = tested on: XF498

Measured: GI50

CC(=O)OCCOCNC(=S)N/N=C/c1ccc([N+](=O)[O-])s1
30.4 µM: HCT-15
inactive: 786-0 > 100 µM | A498 86.7 µM | A549 43.4 µM | ACHN 46.5 µM | CCRF-CEM 4.72 µM | COLO 205 2.08 µM | DLD-1 31.1 µM | DMS-114 7.85 µM | DMS-273 28.1 µM | EKVX 55.5 µM | HCC 2998 43.2 µM | HCT-116 20.1 µM | HL-60 3.81 µM | HOP-18 > 100 µM | HOP-62 > 100 µM | HOP-92 > 100 µM | HT-29 20.7 µM | IGROV-1 34 µM | K562 21.7 µM | KM-20L2 32.4 µM | KM12 34.4 µM | LOX IMVI 33.4 µM | LXFL 529 73.3 µM | M14 40 µM | M19-MEL 18.2 µM | MOLT-4 28.8 µM | Malme-3M 48.4 µM | NCI-H226 > 100 µM | NCI-H23 19 µM | NCI-H460 42.4 µM | NCI-H522 11.2 µM | OVCAR-3 29.3 µM | OVCAR-4 64.1 µM | OVCAR-5 37.3 µM | OVCAR-8 45.5 µM | RPMI-8226 29.1 µM | RXF 393 > 100 µM | SF-268 61.9 µM | SF-295 40.4 µM | SF-539 34 µM | SK-MEL-28 > 100 µM | SK-MEL-2 67.3 µM | SK-MEL-5 25.7 µM | SK-OV-3 > 100 µM | SN12C 36.4 µM | SNB-19 > 100 µM | SNB-75 > 100 µM | SNB-78 > 100 µM | SR 9.68 µM | SW-620 30.5 µM | TK-10 > 100 µM | U-251 32.1 µM | UACC-257 23.8 µM | UACC-62 24.3 µM | UO-31 > 100 µM | XF498 > 100 µM
